By IC50 is commonly meant the concentration at which inhibition is half-maximal. The term melting point denotes the temperature of the solid-liquid transition.

Like-named read-outs stand apart in the source and are kept apart here.

The target in one data set is T1, MMP-1 (Homo sapiens, UniProt P03956).
T1 sequence (P03956 100-469): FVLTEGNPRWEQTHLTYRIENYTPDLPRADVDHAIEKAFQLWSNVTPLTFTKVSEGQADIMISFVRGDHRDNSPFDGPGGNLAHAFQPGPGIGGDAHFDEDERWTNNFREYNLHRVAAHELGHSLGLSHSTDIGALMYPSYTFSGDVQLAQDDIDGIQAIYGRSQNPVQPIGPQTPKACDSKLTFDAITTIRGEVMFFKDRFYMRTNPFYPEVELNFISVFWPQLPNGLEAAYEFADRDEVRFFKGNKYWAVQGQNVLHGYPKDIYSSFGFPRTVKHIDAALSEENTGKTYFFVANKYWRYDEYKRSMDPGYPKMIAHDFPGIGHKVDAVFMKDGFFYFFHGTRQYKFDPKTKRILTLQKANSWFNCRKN
Put plainly: MMP-1 inhibition (thiopeptide or fluorescent peptide substrate). It is filed as biochemical. The following applies: read-out: MMP-1 IC50.

The target in a further data set is MMP-9 (Homo sapiens, UniProt P14780). Put plainly: MMP-9 inhibition (thiopeptide or fluorescent peptide substrate). The following applies: read-out: MMP-9 IC50. It is filed as biochemical.
In the next data set the target is MMP-13 (Homo sapiens, UniProt P45452). In words: MMP-13 inhibition (thiopeptide or fluorescent peptide substrate). It is filed as biochemical. The following applies: read-out: MMP-13 IC50.
In data set [1] the target is TNF-α converting enzyme (TACE) (Homo sapiens, UniProt P78536). Put plainly: TACE inhibition (fluorescent peptidyl substrate). It is filed as biochemical.
TNF-α converting enzyme (TACE), sequence (P78536 215-824, species assumed): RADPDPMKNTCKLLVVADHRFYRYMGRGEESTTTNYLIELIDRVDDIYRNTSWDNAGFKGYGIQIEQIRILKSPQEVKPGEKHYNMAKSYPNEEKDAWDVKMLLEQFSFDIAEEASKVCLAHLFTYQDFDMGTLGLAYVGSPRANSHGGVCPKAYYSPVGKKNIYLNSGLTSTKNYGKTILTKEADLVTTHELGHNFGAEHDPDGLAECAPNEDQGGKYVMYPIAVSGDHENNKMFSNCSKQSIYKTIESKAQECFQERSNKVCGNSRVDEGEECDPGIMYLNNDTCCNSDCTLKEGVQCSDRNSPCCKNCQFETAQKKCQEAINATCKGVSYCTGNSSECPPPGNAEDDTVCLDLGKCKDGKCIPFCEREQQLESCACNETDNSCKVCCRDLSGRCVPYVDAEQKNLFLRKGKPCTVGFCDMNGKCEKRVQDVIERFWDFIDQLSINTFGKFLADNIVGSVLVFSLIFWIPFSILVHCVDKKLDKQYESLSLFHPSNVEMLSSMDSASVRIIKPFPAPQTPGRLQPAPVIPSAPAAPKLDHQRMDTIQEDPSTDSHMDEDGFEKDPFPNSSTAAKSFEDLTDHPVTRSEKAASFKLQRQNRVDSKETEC

MMP-9, sequence (P14780 94-707): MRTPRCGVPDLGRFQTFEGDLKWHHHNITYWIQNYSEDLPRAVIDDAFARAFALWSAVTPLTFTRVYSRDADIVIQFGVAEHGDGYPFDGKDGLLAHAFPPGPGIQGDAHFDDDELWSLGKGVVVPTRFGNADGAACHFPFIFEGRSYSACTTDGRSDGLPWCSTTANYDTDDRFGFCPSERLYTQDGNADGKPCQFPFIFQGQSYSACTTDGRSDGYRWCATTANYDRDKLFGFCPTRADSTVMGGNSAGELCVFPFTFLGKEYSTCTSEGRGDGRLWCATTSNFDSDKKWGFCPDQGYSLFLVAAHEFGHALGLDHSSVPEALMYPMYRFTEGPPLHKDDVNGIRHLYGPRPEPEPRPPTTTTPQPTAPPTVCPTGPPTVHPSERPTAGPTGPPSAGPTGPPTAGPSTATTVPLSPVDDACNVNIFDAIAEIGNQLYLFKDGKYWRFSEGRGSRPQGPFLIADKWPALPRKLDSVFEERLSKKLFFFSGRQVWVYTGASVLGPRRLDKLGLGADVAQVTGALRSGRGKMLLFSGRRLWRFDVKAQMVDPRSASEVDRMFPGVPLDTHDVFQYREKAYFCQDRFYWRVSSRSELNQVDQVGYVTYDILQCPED

In turn, `CC#CCOc1ccc(S(=O)(=O)N(C)[C@@H](C(=O)NO)[C@H]2CC[C@H](O)CC2)cc1` [Example 130] returned a melting point of 195 to 197 °C. The IC50 on MMP-1 turned out to be 169 nM. For the same compound, the IC50 on MMP-9 amounted to 30 nM. The IC50 at MMP-13 is 15 nM. Further, the IC50 in data set [1] (read-out: TACE IC50) amounted to 23 nM.

`CC#CCOc1ccc(S(=O)(=O)N(C)C2(C(=O)NO)CCCCC2)cc1` [Example 136, 1-[{[4-(2-Butynyloxy)phenyl]sulfonyl}(methyl)amino]-N-hydroxycyclohexanecarboxamide] gave a melting point of 89 to 92 °C. Moreover, at MMP-1, the half-maximal inhibitory concentration (IC50) turned out to be 682 nM. The IC50 on MMP-9 stood at 3750 nM. In addition, on MMP-13, the IC50 was 1630 nM. Further, the IC50 in data set [1] (read-out: TACE IC50) stood at 574 nM.

In turn, `CC#CCOc1ccc(S(=O)(=O)N(Cc2cccnc2)C2(C(=O)NO)CCCCC2)cc1` [Example 137, 1-[{[4-(2-Butynyloxy)phenyl]sulfonyl}(3-pyridinylmethyl)amino]N-hydroxycyclohexanecarboxamide] registered a melting point of 179 to 181 °C. The IC50 on MMP-1 worked out at 482 nM. Moreover, at MMP-9, the IC50 is 79 nM. For the same compound, the IC50 at MMP-13 is 48 nM. For the same compound, in data set [1] (read-out: TACE IC50), the IC50 was 191 nM.

`CC#CCOc1ccc(S(=O)(=O)N(C)C(C(=O)NO)C(C)(C)SCCN2CCN(C)CC2)cc1` (stereo not shown) [Example 141] gave a melting point of 110 to 115 °C. Also, the IC50 at MMP-1 stood at 17 nM. Besides, on MMP-9, the IC50 was 8.3 nM. Also, the concentration for half-maximal inhibition (IC50) at MMP-13 stood at 7.6 nM. The IC50 in data set [1] (read-out: TACE IC50) turned out to be 101 nM.

Compound `CC#CCOc1ccc(S(=O)(=O)N(C)C(C(=O)NO)C(C)(C)SCCN(CC)CC)cc1` (stereo not shown) [Example 142, 2-({[4-(2-Butynyloxy)phenyl]sulfonyl)(methyl)amino]-N-hydroxy-3-methyl-3-{[2-(diethylamino)ethyl]sulfanyl}butanamide] came in with a melting point of 55 to 57 °C. The IC50 on MMP-1 came to 72 nM. Moreover, the IC50 at MMP-9 is 10 nM. Besides, the IC50 on MMP-13 is 14 nM. Moreover, the IC50 in data set [1] (read-out: TACE IC50) came out at 131 nM.

In turn, `CC#CCOc1ccc(S(=O)(=O)N(C)C(C(=O)NO)C(C)(C)SCCCN2CCOCC2)cc1` (stereo not shown) [Example 146] showed a melting point of 48 to 52 °C. At MMP-1, the IC50 was determined as 13 nM. The IC50 on MMP-9 was 5.3 nM. In addition, the concentration for half-maximal inhibition (IC50) on MMP-13 was found to be 3.6 nM. In data set [1] (read-out: TACE IC50), the IC50 was found to be 132 nM.

Turning to `CC#CCOc1ccc(S(=O)(=O)N(C)C(C(=O)NO)C(C)(C)SCCCN2CCN(C)CC2)cc1` (stereo not shown) [Example 147, 2-({[4-(2-Butynyloxy)phenyl]sulfonyl)(methyl)amino]-N-hydroxy-3 Methyl-3-{[2(4-methyl-1-ethyl-1-piperazinyl)propyl]sulfanyl}butanamide], the melting point was 58 to 62 °C. Besides, the IC50 on MMP-1 came out at 21 nM. The IC50 at MMP-9 was 5.3 nM. In addition, on MMP-13, the IC50 is 5.3 nM. For the same compound, the IC50 in data set [1] (read-out: TACE IC50) was determined as 157 nM.

`CC#CCOc1ccc(S(=O)(=O)N(C)C(C(=O)NO)C(C)(C)SC)cc1` (stereo not shown) [Example 149, 2-[(4-but-2-ynyloxy-Benenesulfonyl)-methyl-amino]-N-hydroxy-3-methyl-3-methylsulfanyl-butyramide] showed a melting point of 132 to 135 °C. For the same compound, the IC50 on MMP-1 worked out at 17 nM. Besides, at MMP-9, the IC50 was found to be 13 nM. Besides, the 50% inhibitory concentration (IC50) at MMP-13 was 4.6 nM. The IC50 in data set [1] (read-out: TACE IC50) came out at 29 nM.

`CC#CCOc1ccc(S(=O)(=O)N2CCSC3(CCCC3)C2C(=O)NO)cc1` (stereo not shown) [Example 236] yielded a melting point of 206 to 208 °C. Moreover, the IC50 on MMP-1 (Table 9) stood at 24 nM. In addition, on MMP-13 (Table 9), the IC50 turned out to be 11 nM. Moreover, in data set [1] (Table 9, read-out: TACE IC50), the IC50 stood at 43 nM.

For the compound `CC#CCOc1ccc(S(=O)(=O)N2CCSCC2C(=O)NO)cc1` (stereo not shown) [Example 239], the melting point fell in the range of 150 to 154 °C. At MMP-9 (Table 9), the IC50 came out at 21 nM. Besides, the IC50 at MMP-13 (Table 9) was 12 nM. Moreover, the IC50 in data set [1] (Table 9, read-out: TACE IC50) amounted to 2.9 nM.

As for `CC#CCOc1ccc(S(=O)(=O)N2CCOCC2C(=O)NO)cc1` (stereo not shown) [Example 240, 4-([4-(2-Butynyloxy)phenyl]sulfonyl}-N-hydroxy-3-morpholinecarboxamide], the melting point was in the range of 68 to 72 °C. At MMP-9 (Table 9), the IC50 was found to be 170 nM. The IC50 on MMP-13 (Table 9) came out at 26 nM. The IC50 in data set [1] (TACE IC50) is 4.5 nM.

The values above are taken from patent US6716833B2, “Acetylenic α-amino acid-based sulfonamide hydroxamic acid tace inhibitors” (priority 1999, dated 2004).
